We go through 39 molecules from US6825192B1, “Heterodiazinone derivatives” (Eisai Co., Ltd., priority 1999, dated 2004).

Data set [1] has as its system male ddy mice. Nature of the data set: Inhibitory action on AMPA-inducing spasm. The format is in vivo. To be noted: intravenous, 5 minutes before 1.5 nmol AMPA into the ventricle. How it is done: A test compound or its solvent only was intravenously injected into 4-week-old male ddy mice, and 5 minutes later, 1.5 nmol AMPA was administered into the ventricle thereby inducing spasm. The action of the test chemical was judged by the presence or absence of spasm, and its dose causing 80% or more inhibition was regarded as an effective dose.

The subject of data set [2] is AMPA receptor. Nature of the data set: Inhibitory action on AMPA-inducing inflow of calcium into nerve cells (Fura2-AM). The format is cell-based. To be noted: rat cerebral cortex nerve cells on astrocytes, 1 μM MK-801, stimulated by 2 μM AMPA, fluorescence 340/380 nm. The method, then:
The cerebral cortex was excised from the brain of a rat on day 18 after birth and treated with trypsin and DNase, whereby the cells were dispersed. The cells were allowed to float on DMEM containing 10% serum, inoculated into a culture bottle, and their astrocytes were grown. The astrocytes were re-dispersed with trypsin and inoculated onto each well on a 96-well plate. After it was confirmed that the bottom of each well was completely covered with the astrocytes after culture for 1 week, cerebral cortex nerve cells dispersed in the same manner as above were inoculated thereon. After 24 hours, the medium was exchanged with fresh one, and after culture for further 1 week, the medium was exchanged with a medium containing 1 μM MK-801.
The inflow of calcium into the cells was measured using Fura2-AM that is a calcium-sensitive fluorescent pigment. By treating the cells with a Fura2-AM-containing medium for 1 hour, Fura2-AM was incorporated into the cells, and the medium was exchanged with a Tyrode solution containing 1 μM MK-801. After a test compound was added, the cells were stimulated by 2 μM AMPA. The change in the amount of calcium flowing into the cells was measured as a change in the fluorescence intensity at wavelengths of 340/380 nm. The effect of a test compound was evaluated where the reaction caused by AMPA added to the Tyrode solution free of the test compound was used as the control.

The IC50 is the concentration at which inhibition is half-maximal. The melting point is the temperature of the solid-liquid transition.

SMILES strings stand for the structures. Where a name gives a salt, the structure may show the parent alone.

For `O=C1COC(c2ncccc2O)=NN1c1ccccc1` [Example 14, 2-(3-Hydroxy-2-pyridyl)-4-phenyl-4H-1,3,4-oxadiazine-5(6H)-one], the “effective dose (dose causing 80% or more inhibition of spasm)” value in data set [1] is given as 10 mg/kg. Further, the IC50 in data set [2] worked out at 1.56 µM.
`O=C1COC(c2ccccn2)=NN1c1ccccc1` (as salt: hydrochloride) [Example 1, 2-(2-Pyridyl)-4-phenyl-4H-1,3,4-oxadiazine-5(6H)-one hydrochloride] displayed a melting point of 149 to 150 °C.
On to `N#Cc1ccccc1N1N=C(c2ccccc2)OCC1=O` [Example 36, 2-Phenyl-4-(2-cyanoeyphenyl)-4H-1,3,4-oxadiazine-5(6H)-one], for which, in data set [1], the “effective dose (dose causing 80% or more inhibition of spasm)” value is given as 10 mg/kg. Further, the half-maximal inhibitory concentration (IC50) in data set [2] is 2.28 µM.
For the molecule `Nc1cccc(C2=NN(c3ccccc3)C(=O)CO2)c1` [Example 78, 2-(3-aminophenyl)-4-phenyl-4H-1,3,4-oxadiazine-5(6H)-one], in data set [2], the IC50 was 31.8 µM.
Still for that read-out and setting: under `O=C1COC(c2ccnc(Cl)c2)=NN1c1ccccc1` [Example 12, 2-(2-Chloro-4-pyridyl)-4-phenyl-4H-1,3,4-oxadiazine-5(6H)-one hydrochloride] stands 42.8 µM; under `O=C1COC(/C=C/c2ccccc2)=NN1c1ccccc1` [Example 15, 2-Styryl-4-phenyl-4H-1,3,4-oxadiazine-5(6H)-one], 27.5 µM; under `COc1ccccc1N1N=C(c2ccccn2)OCC1=O` [Example 35, 2-(2-Pyridyl)-4-(2-methoxyphenyl)-4H-1,3,4-oxadiazine-5(6H)-one], 42.7 µM.
As for `Cl.O=C1COC(c2ccccc2OCCN2CCOCC2)=NN1c1ccccc1Br` [Example 68, 2-{2-[2-(4-Morpholinyl)ethoxy]phenyl}-4-(2-bromophenyl)-4H-1,3,4-oxadiazine-5(6H)-one hydrochloride], the “effective dose (dose causing 80% or more inhibition of spasm)” value in data set [1] is reported as 30 mg/kg. The IC50 in data set [2] stood at 11.1 µM.
For `CN(C)CCCOc1ccccc1C1=NN(c2ccccc2)C(=O)CO1` [Example 62, 2-[2-(3-Dimethylaminopropoxy)phenyl]-4-phenyl-4H-1,3,4-oxadiazine-5(6H)-one hydrochloride], the IC50 in data set [2] worked out at 25.1 µM.
For the molecule `O=C1COC(c2cccs2)=NN1c1ccccc1` [Example 31, 2-(2-Thienyl)-4-phenyl-4H-1,3,4-oxadiazine-5(6H)-one], the IC50 in data set [2] is 8.3 µM.
For `O=C1COC(c2ccccc2OCCN2CCOCC2)=NN1c1ccccc1` [Example 56, 2-{2-[2-(4-Morpholinyl)ethoxy]phenyl}-4-phenyl-4H-1,3,4-oxadiazine-5(6H)-one hydrochloride], the IC50 in data set [2] was found to be 17.6 µM.
`O=C1COC(c2ccccc2[N+](=O)[O-])=NN1c1ccccc1` [Example 20, 2-(2-Nitrophenyl)-4-phenyl-4H-1,3,4-oxadiazine-5(6H)-one]: the IC50 in data set [2] stood at 28.2 µM.
Take `O=C1COC(c2ccccn2)=NN1c1ccccc1F` [Example 34, 2-(2-Pyridyl)-4-(2-fluorophenyl)-4H-1,3,4-oxadiazine-5(6H)-one]: the IC50 in data set [2] is 9.21 µM.
Regarding `O=C1COC(c2ccccc2)=NN1C1CCOCC1` [Example 80, 2-Phenyl-4-(tetrahydro-4H-pyran-4-yl)-4H-1,3,4-oxadiazine-5(6H)-one], the IC50 in data set [2] is 62 µM.
In the case of `CN(C)c1cccc(C2=NN(c3ccccc3)C(=O)CO2)c1` [Example 90, 2-(3-Dimethylaminophenyl)-4-phenyl-4H-1,3,4-oxadiazine-5(6H)-one], the IC50 in data set [2] was 31.4 µM.
For the molecule `O=C1COC(c2ccccn2)=NN1c1ccc(F)cc1F` [Example 10, 2-(2-Pyridyl)-4-(2,4-difluorophenyl)-4H-1,3,4-oxadiazine-5(6H)-one hydrochloride], the IC50 in data set [2] came out at 44.2 µM.
On the same count and under the same terms, under `O=C1COC(Cc2ccccc2)=NN1c1ccccc1` [Example 32, 2-Benzyl-4-phenyl-4H-1,3,4-oxadiazine-5(6H)-one] stands 36.6 µM; under `O=C1COC(c2ccccc2)=NN1c1cccs1` [Example 43, 2-Phenyl-4-(2-thienyl)-4H-1,3,4-oxadiazine-5(6H)-one], 25.3 µM.
Still for that read-out and setting: under `CN(C)c1ccccc1C1=NN(c2ccccc2)C(=O)CO1` [Example 91, 2-(2-Dimethylaminophenyl)-4-phenyl-4H-1,3,4-oxadiazine-5(6H)-one] stands 19.1 µM; under `O=C1COC(c2ccccc2)=NN1C1CCCCC1` [Example 27, 2-Phenyl-4-cyclohexyl-4H-1,3,4-oxadiazine-5(6H)-one], 33.1 µM; under `O=C1COC(c2ccccc2O)=NN1c1ccccc1Br` [Example 48, 2-(2-hydroxyphenyl)-4-(2-bromophenyl)-4H-1,3,4-oxadiazine-5(6H)-one], 1.29 µM.
For the molecule `N#Cc1ccccc1N1N=C(c2ccccn2)OCC1=O` [Example 106, 2-(2-Pyridyl)-4-(2-cyanophenyl)-4H-1,3,4-oxadiazine-5(6H)-one], the IC50 in data set [2] is 7.3 µM.
Consider `O=C1COC(c2ccccn2)=NN1C1CCCCC1` [Example 11, 2-(2-Pyridyl)-4-cyclohexyl-4H-1,3,4-oxadiazine-5(6H)-one hydrochloride], for which, in data set [2], the IC50 stood at 69 µM.
Take `O=C1COC(/C=C/c2cccnc2)=NN1c1ccccc1` [Example 16, 2-[2-(3-Pyridyl)vinyl]-4-phenyl-4H-1,3,4-oxadiazine-5(6H)-one]: in data set [2], the IC50 is 24.9 µM.
Take `O=C1COC(c2ccccc2)=NN1c1ccsc1` [Example 44, 2-Phenyl-4-(3-thienyl)-4H-1,3,4-oxadiazine-5(6H)-one]: the IC50 in data set [2] is 22.7 µM.
Take `O=C1COC(c2ccccc2OCCN2CCOCC2)=NN1C1CCCCC1` [Example 69, 2-{2-[2-(4-Morpholinyl)ethoxy]phenyl}-4-cyclohexyl-4H-1,3,4-oxadiazine-5(6H)-one hydrochloride]: the IC50 in data set [2] turned out to be 68.7 µM.
Take `CN(C)CCOc1ccccc1C1=NN(c2ccccc2)C(=O)CO1` [Example 61, 2-[2-(2-Dimethylaminoethoxy)phenyl]-4-phenyl-4H-1,3,4-oxadiazine-5(6H)-one hydrochloride]: the IC50 in data set [2] was found to be 4.61 µM.
Turning to `O=C1COC(c2ccccc2)=NN1c1ccccc1Br` [Example 30, 2-Phenyl-4-(2-bromophenyl)-4H-1,3,4-oxadiazine-5(6H)-one], the IC50 in data set [2] was 1.73 µM.
The molecule `CN(C)CCOc1ccccc1C1=NN(c2ccccc2Br)C(=O)CO1.Cl` [Example 54, 2-[2-(2-Dimethylamino)ethoxyphenyl]-4-(2-bromophenyl)-4H-1,3,4-oxadiazine-5(6H)-one hydrochloride] had a melting point of 169 to 170 °C. For the same molecule, the “effective dose (dose causing 80% or more inhibition of spasm)” value in data set [1] amounted to 30 mg/kg. Besides, the IC50 in data set [2] worked out at 4.14 µM.
As for `O=C1COC(c2ccccc2O)=NN1c1ccccc1F` [Example 51, 2-(2-Hydroxyphenyl)-4-(2-fluorophenyl)-4H-1,3,4-oxadiazine-5(6H)-one], the IC50 in data set [2] stood at 1.06 µM.
As to `O=C1COC(c2ccccc2OCc2ccncc2)=NN1c1ccccc1` [Example 55, 2-[2-(4-Pyridyl)methoxyphenyl]-4-phenyl-4H-1,3,4-oxadiazine-5(6H)-one], in data set [2], the IC50 was 10.5 µM.
Take `O=C1COC(c2ccccc2)=NN1c1c(Cl)cccc1Cl` [Example 101, 2-Phenyl-4-(2,6-dichlorophenyl)-4H-1,3,4-oxadiazine-5(6)-one]: in data set [2], the IC50 is 3.4 µM.
With `O=C1COC(c2ccccc2OCCCN2CCCCC2)=NN1c1ccccc1` [Example 63, 2-{2-[3-(1-Piperidinyl)propoxy]phenyl}-4-phenyl-4H-1,3,4-oxadiazine-5(6H)-one hydrochloride], the IC50 in data set [2] amounted to 24.7 µM.
For the molecule `CC1(C)OC(c2ccccc2)=NN(c2ccccc2)C1=O` [Example 107, 2,4-Diphenyl-6,6-dimethyl-4H-1,3,4-oxadiazine-5-one], the IC50 in data set [2] was 6.4 µM.
Take `O=C1COC(c2ccccc2OCCN2CCOCC2)=NN1c1ccccc1F` [Example 67, 2-{2-[2-(4-Morpholinyl)ethoxy]phenyl}-4-(2-fluorophenyl)-4H-1,3,4-oxadiazine-5(6H)-one hydrochloride]: the IC50 in data set [2] was found to be 6.62 µM.
The same measure, in the same setting: under `O=C1COC(c2ccccc2)=NN1c1ccccc1O` [Example 50, 2-Phenyl-4-(2-hydroxyphenyl)-4H-1,3,4-oxadiazine-5(6H)-one] stands 27.9 µM; under `CC(c1ccncc1)N1N=C(c2ccccc2)OCC1=O` (centres unmarked) [Example 89, 2-Phenyl-4-[1-(4-pyridyl)ethyl]-4H-1,3,4-oxadiazine-5(6H)-one oxalate], 54 µM; under `O=C1COC(c2ccccc2O)=NN1c1ccc(F)cc1` [Example 52, 2-(2-Hydroxyphenyl)-4-(4-fluorophenyl)-4H-1,3,4-oxadiazine-5(6H)-one], 1.52 µM.
On to `O=C1COC(c2ccccc2)=NN1c1cccnc1` [Example 39, 2-Phenyl-4-(3-pyridyl)-4H-1,3,4-oxadiazine-5(6H)-one hydrochloride], for which the half-maximal inhibitory concentration (IC50) in data set [2] amounted to 51.4 µM.
